In series [1] the test system is human umbilical vein endothelial cells. Kind of series: Endothelial microtubule formation assay on Matrigel. It counts as cell-based. Particulars: HUVEC on Matrigel, scored at 18 h. How it is done: FIG. 6: The photomicrographs show endothelial microtubule formation in the presence of sulphated dextrins (×40 magnification). A visual analogue scale was used to determine the extent of tube formation and scored on a scale from 0 (all cells remain single) to 4 (all cells involved in tubular structures) as previously described (ref: 1,14). Space bar=100 microns.
The endothelial microtuble formation assay was performed by isolating human umbilical vein endothelial cells from umbilical cords within 6 h of delivery by caesarean section. The umbilical vein was cannulated and 0.1% collagenase in phosphate buffered saline was introduced and incubated for 20 minutes. The endothelial cells liberated by the collagenase were obtained by washing the umbilical vein with Medium 199. The cells were washed three times with Medium 199 and then cultured in tissue culture flasks coated with fibronectin. […]
Aliquots of Matrigel were dispensed into 35 mm diameter tissue culture dishes on ice and then incubated at 37° C. for 10 min to allow the gel to set. […] At various time points from 8-24 hours, the plates were examined and scored using a published scheme from 0-4, where 0=all adherent cells remain single, and 4=all adherent cells involved in tubular structures. New vessel formation was quantified blind by three different observers at 18 h. […]

The test system of the next series is HUVEC cell line. Nature of the series: TCS Biologicals Human Angiogenesis Model (tubule formation). It counts as cell-based. The protocol: The effect of sulphated dextrin on vessel formation of the HUVEC cell line was performed by the use of the TCS Biologicals Human Angiogenesis Model. The assay is supplied as a growing culture of the HUVEC cell line together with culture matrix and additional human cells present (the exact nature of the cells is not known) at the earliest stages of tubule formation in a 24-well format. The positive control reagent was a standard stock solution of VEGF and the negative control was Suramin. After removing the well seals, the cultures were examined for cell morphology to confirm their viability.
Growth medium was provided with the kit and was used to make up the sulphated dextrin at concentrations ranging from 0-1000 μg/ml. The existing medium was aspirated from the wells and replaced with medium containing the dextrin sulphate concentrations in a 0.5ml volume. This was placed at 37° C., in a 5% CO2 containing atmosphere. This was repeated on days 4, 7 and 9.
Between days 7-11 cultures were fixed by the enclosed fixative and stained with the mouse monoclonal anti-PECAM-1 antibody at a 1:4000 dilution (present in blocking buffer). 0.5ml of diluted antibody was added per well and incubated for 60 minutes at 37° C. The secondary antibody (goat anti-mouse lgG alkaline phosphatase conjugate) was diluted 1:500 in blocking buffer and added to the wells after washing for 60 minutes at 37° C. After washing the plate the substrate was prepared; BCIP/NBT tablets were dissolved in distilled water and added to the wells. Following incubation for 5-10 minutes the wells were washed and were imaged using the Leica Qwin image analysis software package.

In another series the test system is HPB-ALL cells. Kind of series: [3H]-dextrin 2-sulphate binding to HPB-ALL cells.
In another series the test system is HeLa cells. Kind of series: [3H]-dextrin 2-sulphate binding to HeLa cells. The settings on record: n=9.
Series [2] concerns peripheral blood mononuclear cells and monocyte-derived-macrophages. Nature of the series: D2S cell surface binding to peripheral blood mononuclear cells and monocyte-derived-macrophages. Particulars: PBMC and monocyte-derived-macrophages, read-out: dissociation constant. The protocol:
Our previous studies of peripheral blood mononuclear cells and monocyte-derived-macrophages have shown that D2S binds to the cell surface in a specific and saturable manner with a dissociation constant of 82±14 nM.

The nature of series [3]: Accumulation in cells of the peritoneal cavity and peripheral blood of treated patients. It counts as in vivo, human.
The next series deals with HUVECs. Nature of the series: Proliferation induced by bFGF or VEGF, [3H]-thymidine incorporation. Particulars: 100 μg/ml, bFGF 10 ng/ml or VEGF 20 ng/ml. It counts as cell-based, human. The protocol:
FIG. 3: Graph to show the effect of sulphated dextrins on the proliferation of HUVECs induced by bFGF or VEGF was measured using a [^3H]-thymidine incorporation assay.
For these experiments, HUVECs (5×10^3/well) were suspended in Medium M199 containing 10% FCS, 2 mM L-glutamine, 100 Iu/ml penicillin and 0.1 mg/ml streptomycin. After 24 h, the media was replaced with fresh media containing either D2S (100 μg/ml) or D6S (100 μg/ml) for 1 h following which either bFGF (10 ng/ml) or VEGF (20 ng/ml, Preprotech, Rocky Hill, N.J.) were added. […] [^3H]-thymidine (1 mCi/ml, Amersham Pharrnacia, Bucks, UK) was added 48 h later and the cells cultured for a further 16 h. Cells were harvested using an automated Betaplate 96 well harvester (Wallac Oy, Turku, Finland) and the radioactivity counted using a Betaplate liquid scintillation counter.
A general note: Uptake of a labelled nucleoside into DNA is a usual measure of proliferation.

For the next series, the system named is KSY-1 cell line. Nature of the series: Proliferation with bFGF or VEGF, [3H]-thymidine incorporation. It counts as cell-based, human.
Series [4] has as its system human placental blood vessels. Kind of series: Placental blood vessel in fibrin clot in vitro angiogenesis assay. The series is classed as cell-based. Particulars: 100 μg/ml; for new vessel formation compared to media alone: up to day 22. The protocol: Compounds were tested at a final concentration of 100 μg/ml. The degree of new vessel formation was quantified blind twice a week using a visual analog scale in which 0=no growth, 1=minimal new vessel formation, 2=significant new vessel formation, and 3=dense new vessel formation. An angiogenesis score was derived from each count by dividing the total score (i.e. the sum of all the wells) by the maximum possible score and then expressing the result as a percentage. This graph is representative of 3 experiments with a total of 20 wells/plate/experiment for each compound tested.
Blood vessels (approximately 1-2 mm diameter) were excised from the apical surface of human placentas within 6 h of an elective Caesarean birth. Use of the placentas for these studies were approved by the Ethics Committee of Hammersmith Hospitals Trust, London. The blood vessels were placed in Hank's balanced salt solution and cut into 1-2 mm fragments using fine dissecting forceps and iridectomy scissors. Residual clots were removed and the blood vessels then soaked in Hank's balanced salt solution.
The effect of each compound on new blood vessel formulation was determined by culturing the blood vessels within a fibrin clot in 24-well tissue culture plates. Thirty μl of bovine thrombin (50 NIH U/ml in 0.15 M sodium chloride) was added to each well followed by 1 ml/well of 3 mg/ml bovine fibrinogen in Medium 199. The thrombin and fibrinogen were rapidly mixed and a blood vessel fragment placed in the centre of the well. Fibrin gel formation occurred rapidly and left the vessel suspended within the gel. One ml/well of Medium 199 supplemented with 20% foetal calf serum, 250 IU/ml penicillin and 250 U/ml streptomycin was then added to each well. ε-arnino-n-caproic acid was also added (300 μg/ml) for the first 4 days and twice weekly thereafter (50 μg/ml) in order to prevent dissolution of the fibrin clot. The vessels were cultured at 37° C. in a humidified incubator for 25 days with the media being changed twice weekly.
The degree of new vessel formation was quantified blind twice a week by three different observers using a visual analogue scale in which 0=no growth, 1=very little new vessel formation, 2=significant new vessel formation and 3=dense new vessel formation. An angiogenesis score was derived from the counts undertaken for each well by dividing the total score by the maximum score possible and then expressing the result as a percentage. On each of 3 separate occasions, each compound was tested in 20 replicate wells. […] Some of the fibrin clots were fixed overnight in 10% formalin, paraffin embedded, sectioned for histology and then stained for the endothelial cell markers Factor VIII and CD31. Results are expressed as the mean±sem. A students t-test was used to determine the level of significance.

The subject of another series is Kaposi's sarcoma. Nature of the series: Phase I clinical trial in patients with late stage AIDS: Kaposi's sarcoma. It counts as in vivo, human.
A further series relates to HIV-1. The settings on record: intra-peritoneal route, patients with late stage AIDS.

Entries after “also recorded” stand apart in the source; their conditions may differ.

Method for HUVEC's: (§1) Human umbilical vein endothelial cells (HUVEC's) were also harvested from umbilical cords by digestion with collagenase type II and cultured in 1% gelatin coated tissue culture flasks in Medium 199 supplemented with 20% fetal bovine serum, 100 IU/ml penicillin, 0.1 mg/ml streptomycin, 2mM L-glutamine, 10 U/ml heparin and 20 μg/ml endothelial cell growth supplement. The KS Y-1 cell line which was established from the pleural effusion of a patient with AIDS-associated Kaposi's sarcoma was also studied. It was CD34 and CD31 positive confirming it as being of endothelial origin.
(§2) The effect of sulphated dextrins on the growth of HUVEC's and KSY-1 cells which were being cultured in the presence of basic fibroblast growth factor (bFGF) or vascular endothelial growth factor (VEGF) was also determined.
Method for KSY-1 cells: as §1, §2

As to dextrin 2,6-sulphate, the “anti-angiogenic activity (microtubule formation)” value in [1] was “more than that seen with D2S but less than that seen with D6S”.

As to VEGF, in the series with HUVEC cell line (positive control reagent), the “branch points, elevation” value came to 131% and the “tubule number, elevation compared to vehicle control” value was 174%.

Take `Cc1ccc(C(=O)Nc2ccc(S(=O)(=O)O)c3cc(S(=O)(=O)O)cc(S(=O)(=O)O)c23)cc1NC(=O)c1cccc(NC(=O)Nc2cccc(C(=O)Nc3cc(C(=O)Nc4ccc(S(=O)(=O)O)c5cc(S(=O)(=O)O)cc(S(=O)(=O)O)c45)ccc3C)c2)c1` [Suramin, reference compound]: in the series on HUVEC cell line (negative control reagent), the “branch points, inhibition” value came to 98% and the “tubule number, inhibitory effect compared to vehicle control” value amounted to 51%.

In the case of dextrin 2-sulphate, the Bmax with HPB-ALL cells is 4.8±0.3 pmol/10^6 cells; in the series with HeLa cells, 4.1±0.2 pmol/10^6 cells. Besides, the Kd with HPB-ALL cells (specific and saturable binding, read-out: dissociation constant (Kd)) was determined as 0.082 ± 0.014 µM; in the series with HeLa cells it was 0.107 ± 0.012 µM; in series [2], 0.082 ± 0.014 µM. Moreover, the “accumulation in cells of treated patients” value in series [3] is “accumulated in the peritoneal macrophages and mesothelial cells”. Moreover, the “effect on proliferation induced by bFGF or VEGF” value in the series on HUVECs is on record as “do not interfere”; in the series on HUVECs (listed as D2S) it was “no significant effect”. In the series with KSY-1 cell line, the “effect on proliferation with bFGF or VEGF” value is “do not interfere”. Moreover, in [4] (day 22), the “new blood vessel formation score (scale 0-3)” value was 1. Moreover, the “new vessel formation compared to media alone” value in series [4] is on record as “reduced the rate of new vessel formation; also recorded: significant reduction in the number of new vessels”. Besides, the “Kaposi's sarcoma clinical response” value with Kaposi's sarcoma is given as “clinical regression of Kaposi's sarcoma in three patients”. The “viral load of HIV-1” value in the series with HIV-1 is “significant and sustained fall”.

Turning to dextrin 6-sulphate, the “effect on proliferation induced by bFGF or VEGF” value with HUVECs is on record as “do not interfere”; with HUVECs (listed as D6S) it was “no significant effect”. In addition, the “effect on proliferation with bFGF or VEGF” value in the series on KSY-1 cell line was “do not interfere”. Besides, the results for the “new vessel formation compared to media alone” value in series [4] and in series [4] (listed as Dextrin 6-sulphate) were “reduced the rate of new vessel formation” and “significant decrease in new vessel formation”, respectively.

For the compound dextrin, in [4], the “new vessel formation compared to media alone” value is recorded as “no difference”. Further, the “cell viability (Trypan blue exclusion)” value with HUVEC's and in the series on KSY-1 cells was more than 95% each time. The “rate of cell division” value was “Neither dextrin nor sulphated dextrins affected” in the series on HUVEC's (HUVEC's, 7 day period, twice weekly cell counts) and “Neither dextrin nor sulphated dextrins affected” in the series with KSY-1 cells (KSY-1 cells, 7 day period, twice weekly cell counts).
